The results in this text go back to the supplement of paper PMC10307832.

What all share (assay): relative viability (nuclei count vs DMSO), 5 days (fraction); higher = more cells survive
Compound in assay [1]: CN1CCC(CNc2ccc3ncc(-c4cccc(OC(F)(F)F)c4)n3n2)CC1 [SGI-1776] + C[C@]1(O)C[C@@H](c2nc(-c3ccc4ccc(-c5ccccc5)nc4c3)c3c(N)nccn32)C1 [Linsitinib] (partner 1 µM)
The essentials: (§1)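 Relative viability divides the nuclei count in treated wells by that in vehicle wells. Lung cancer cell lines were seeded in 1536-well plates, dosed by pin tool the next day, and fixed and stained after 5 days in one step with final 0.05% Triton X-100, 1% formaldehyde and 1 ug/ml Hoechst. Dosing was a single drug or a fixed anchor-drug dose plus five library-drug doses (not always all listed) in √10 steps, and values are medians of duplicate plates imaged at 4×.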

Compound in assay [2]: Nc1ccccc1NC(=O)c1ccc(CNC(=O)OCc2cccnc2)cc1 [Entinostat] + COc1cccc2cc(-c3nc([C@H]4CC[C@H](C(=O)O)CC4)n4ncnc(N)c34)[nH]c12 [OSI-027] (partner 0.5 µM)
The essentials: as §1

Compound in assay [3]: Nc1ccccc1NC(=O)c1ccc(CNC(=O)OCc2cccnc2)cc1 [Entinostat] + CCNC(=O)c1noc(-c2cc(C(C)C)c(O)cc2O)c1-c1ccc(CN2CCOCC2)cc1 [Luminespib] (partner 0.01 µM)
The gist of the method:
as §1

Compound in assay [4]: Nc1ccccc1NC(=O)c1ccc(CNC(=O)OCc2cccnc2)cc1 [Entinostat] + Nc1nc2[nH]cc(CCc3ccc(C(=O)N[C@@H](CCC(=O)O)C(=O)O)cc3)c2c(=O)[nH]1 [Pemetrexed] (partner 0.2 µM)
The gist of the method:
as §1

Turning to PC-3 [JPC-3], the relative viability stood at 0.999 in assay [1] (first compound 0.08 µM); 0.974 in assay [1] (first compound 0.8 µM); 1.02 in assay [1] (first compound 2.53 µM); 0.917 in assay [1] (first compound 8 µM); 0.761 in assay [2] (first compound 0.02 µM); 0.745 in assay [2] (first compound 0.06325 µM). Also, the relative viability in assay [2] (first compound 0.2 µM) stood at 0.57; in assay [2] (first compound 0.6325 µM), 0.432; in assay [2] (first compound 2 µM), 0.306; in assay [3] (first compound 0.02 µM) it was 0.726; in assay [3] (first compound 0.06325 µM), 0.668; in assay [3] (first compound 0.2 µM), 0.5. For the same cell line, the relative viability was 0.51 in assay [3] (first compound 0.6325 µM); 0.365 in assay [3] (first compound 2 µM); 1.36 in assay [4] (first compound 0.02 µM); 1.05 in assay [4] (first compound 0.06325 µM); 0.924 in assay [4] (first compound 0.2 µM); 0.686 in assay [4] (first compound 0.6325 µM). Besides, the relative viability in assay [4] (first compound 2 µM) was determined as 0.461.
Regarding PC-14, the relative viability was determined as 1.06 in assay [1] (first compound 0.08 µM); 0.965 in assay [1] (first compound 0.8 µM); 0.938 in assay [1] (first compound 2.53 µM); 0.802 in assay [1] (first compound 8 µM); 0.814 in assay [2] (first compound 0.02 µM); 0.829 in assay [2] (first compound 0.06325 µM). For the same cell line, the relative viability in assay [2] (first compound 0.2 µM) was found to be 0.779; in assay [2] (first compound 0.6325 µM) it was 0.235; in assay [2] (first compound 2 µM), 0.0869; in assay [3] (first compound 0.02 µM), 0.135; in assay [3] (first compound 0.06325 µM), 0.256; in assay [3] (first compound 0.2 µM) it was 0.151. The relative viability in assay [3] (first compound 0.6325 µM) turned out to be 0.143; in assay [3] (first compound 2 µM), 0.114; in assay [4] (first compound 0.02 µM), 0.137; in assay [4] (first compound 0.06325 µM), 0.163; in assay [4] (first compound 0.2 µM), 0.139; in assay [4] (first compound 0.6325 µM), 0.198. Besides, the relative viability in assay [4] (first compound 2 µM) came out at 0.146.
For RERF-LC-KJ, the relative viability was 0.909 in assay [1] (first compound 0.08 µM); 0.877 in assay [1] (first compound 0.8 µM); 0.9 in assay [1] (first compound 2.53 µM); 0.711 in assay [1] (first compound 8 µM); 0.582 in assay [2] (first compound 0.02 µM); 0.591 in assay [2] (first compound 0.06325 µM). Further, the relative viability in assay [2] (first compound 0.2 µM) was found to be 0.6; in assay [2] (first compound 0.6325 µM), 0.326; in assay [2] (first compound 2 µM), 0.264; in assay [3] (first compound 0.02 µM), 1.13; in assay [3] (first compound 0.06325 µM), 1.16; in assay [3] (first compound 0.2 µM), 1.02. Also, the relative viability in assay [3] (first compound 0.6325 µM) stood at 0.438; in assay [3] (first compound 2 µM) it was 0.322; in assay [4] (first compound 0.02 µM), 0.494; in assay [4] (first compound 0.06325 µM), 0.486; in assay [4] (first compound 0.2 µM), 0.474; in assay [4] (first compound 0.6325 µM), 0.408. In assay [4] (first compound 2 µM), the relative viability stood at 0.319.
Consider SK-LU-1, for which the relative viability in assay [1] (first compound 0.08 µM) was found to be 1.33; in assay [1] (first compound 0.8 µM) it was 1.24; in assay [1] (first compound 2.53 µM), 1.06; in assay [1] (first compound 8 µM), 0.633; in assay [2] (first compound 0.02 µM), 0.357; in assay [2] (first compound 0.06325 µM) it was 0.448. Further, the relative viability was determined as 0.35 in assay [2] (first compound 0.2 µM); 0.261 in assay [2] (first compound 0.6325 µM); 0.231 in assay [2] (first compound 2 µM); 0.207 in assay [3] (first compound 0.02 µM); 0.202 in assay [3] (first compound 0.06325 µM); 0.227 in assay [3] (first compound 0.2 µM). Also, the relative viability was 0.2 in assay [3] (first compound 0.6325 µM); 0.212 in assay [3] (first compound 2 µM); 1 in assay [4] (first compound 0.02 µM); 0.921 in assay [4] (first compound 0.06325 µM); 0.988 in assay [4] (first compound 0.2 µM); 0.879 in assay [4] (first compound 0.6325 µM). Also, the relative viability in assay [4] (first compound 2 µM) is 0.485.
Consider SK-MES-1, for which the relative viability in assay [1] (first compound 0.08 µM) amounted to 1.09; in assay [1] (first compound 0.8 µM), 1.09; in assay [1] (first compound 2.53 µM), 1.14; in assay [1] (first compound 8 µM), 1.03; in assay [2] (first compound 0.02 µM), 0.584; in assay [2] (first compound 0.06325 µM) it was 0.66. The relative viability in assay [2] (first compound 0.2 µM) came to 0.792; in assay [2] (first compound 0.6325 µM), 0.595; in assay [2] (first compound 2 µM), 0.532; in assay [3] (first compound 0.02 µM), 0.798; in assay [3] (first compound 0.06325 µM), 1.03; in assay [3] (first compound 0.2 µM), 0.891. The relative viability was 0.882 in assay [3] (first compound 0.6325 µM); 0.353 in assay [3] (first compound 2 µM); 0.929 in assay [4] (first compound 0.02 µM); 1.01 in assay [4] (first compound 0.06325 µM); 1.04 in assay [4] (first compound 0.2 µM); 0.944 in assay [4] (first compound 0.6325 µM). The relative viability in assay [4] (first compound 2 µM) was determined as 0.577.
SW 1573: the relative viability in assay [1] (first compound 0.08 µM) was 0.94; in assay [1] (first compound 0.8 µM), 0.777; in assay [1] (first compound 2.53 µM), 0.765; in assay [1] (first compound 8 µM), 0.741; in assay [2] (first compound 0.02 µM) it was 0.639; in assay [2] (first compound 0.06325 µM), 0.832. Besides, the relative viability in assay [2] (first compound 0.2 µM) stood at 0.617; in assay [2] (first compound 0.6325 µM) it was 0.598; in assay [2] (first compound 2 µM) it was 0.54; in assay [3] (first compound 0.02 µM), 0.531; in assay [3] (first compound 0.06325 µM), 0.35; in assay [3] (first compound 0.2 µM), 0.162. Moreover, the relative viability in assay [3] (first compound 0.6325 µM) is 0.262; in assay [3] (first compound 2 µM), 0.217; in assay [4] (first compound 0.02 µM), 0.806; in assay [4] (first compound 0.06325 µM) it was 0.88; in assay [4] (first compound 0.2 µM) it was 1.08; in assay [4] (first compound 0.6325 µM) it was 0.966. In addition, in assay [4] (first compound 2 µM), the relative viability was 0.452.
